Results: patent US20100047332A1, “Treatments for burns using thyroid hormone compound in a human” (priority 2005, published 2010)

Assays:
[1] = test system: plasma glycerol (lipolysis of fat); experiment: Plasma glycerol assay before and after mild exercise with topical TriAc cream; assay type: in vivo, human; conditions: for glycerol response relative to baseline: Triac applied; for Percentage change: glycerol after exercise vs baseline
Text: This example uses a glycerol assay to determine the effectiveness of topically applied thyroid hormones or thyroid hormone like molecules as described in the art to increase lipolysis of fat when topically applied. More specifically, this example uses a glycerol assay to determine the effectiveness of topically applied thyroid hormones or thyroid hormone like molecules as described in the art to dissolve fat when topically applied in an amount less than a single oral dose used typically for daily therapeutic or replacement dosages.
Three adult humans (A, B, and C) with normally functioning thyroids and no history of cardiovascular disease, varying by age, sex, BMI, body surface area, and physical activity, were tested. Age varies from less than 25 (subject A) to over 40 (subjects B and C). BMI varied between 18 (A), 20 (C), and 30 (B). Physical activity was greatest in subject A, who had the lowest BMI and was also the youngest. The other two subjects typically had less than three hours of exercise per week. No food or drink other than water was given two hours prior to application of the TriAc formulation. With this short fast, the subjects are still in the fed state and plasma glycerol levels would be expected to not change during exercise, as taught in the literature for young fit subjects (Coyle et al, J Appl Physiol. 1985 August; 59(2):429-33, herein incorporated by reference). The fed state as defined herein is an individual not having an overnight fast. […] The amount of cream and thus TriAc amount was not varied according to age, sex, or weight. The cream was applied intermittently: application days were separated by at least two days.
The subjects rested for 30 minutes and then exercised in a defined manner to maintain either 65-70% of their age adjusted maximal heart rate or 110-120 strides on a Precor 544 EFX elliptical trainer for 30 minutes. Heart rate was monitored continuously with a Polar wireless monitoring device. Room temperature varied between 72 and 84 degrees. Calories expended (from Precor) per kilogram were approximately constant among each participant and between participants on a per kilogram basis during each of the exercise sessions and were usually around 3.0 to 3.5 calories per kg (see Table 4). After a 30 minute exercise session and a 5 minute programmed cool down session, another plasma glycerol assay was taken. The samples were immediately refrigerated and centrifuged after 0 to 10 hours, each exercise set treated exactly the same way, frozen at −40° C. and assayed with the Sigma-Aldrich plasma glycerol assay after deproteinization. Exercise time was fixed at a regular time of day. The next day, the experiment was repeated. The order was placebo day, then treatment day.
The magnitude of the change pre and post exercise with and without TriAc was calculated and the percentage change from baseline with and without TriAc was calculated.

[2] = test system: wounds such as lacerations; experiment: Lacerations treated with continuous topical T-3 or TriAc; assay type: in vivo, human; conditions: continuous topical application, in approximately three days
[3] = test system: second degree partial thickness scald burn; experiment: TriAc cream applied intermittently to a scalding burn in a burn patient; assay type: in vivo, human
Description: The water content was 65 to 75%, with approximately 30% solids. The semi solid cream formulation includes water, emulsifier, aloe vera, and less than 1% of d-tocopherol acetate or equivalent, panthenol, and retinyl palmitate.
On scalding burn day 0, ice was applied all night. The wound appeared as a large reddish area approximately 15 by 30 cm, with an area of white skin approximately 10 by 10 cm. The cream was applied to the entire area in an amount of much less than 1 gm (less than 80 μg per 400 cm^2) on the evening of Day 1, 24 hours post burn. The worst blistering and numbness was over the whitish area. Over the next 48 hours, the wound became somewhat less painful and the white area started to become pink and then red. The outer area extending over the knee remained red. This burn was therefore a split thickness second degree burn with areas of third degree burn.
The cream was applied again on the evening of Day 3, 72 hours post burn, only to a small area of most burned blistered skin over the original whitish area. […] Prior to application of the cream, the entire area was brilliantly red.
The cream was applied again on the evening of Day 4 over the entire area during this application. […] The entire area of the burn now had brownish epidermis in the process of being sloughed. […] FIGS. 1 and 2 are separated by approximately 36 hours.
This is six 24 hour periods from the time of the burn. […] The outline of the burn injury can clearly be seen by examining the margins of the wound.

lateral hip fat deposits = experiment: TriAc cream before exercise for lateral hip fat deposits; assay type: in vivo, human
Text: A non obese person who ran 20 miles a week had lateral hip fat deposits which were resistant to any change.

rat = conditions: cited from earlier work
TSH [4] = conditions: cited from earlier work
TSH [5] = conditions: topically applied, humans; cited from earlier work
[6] = test system: thyroid hormone receptor TRα or β; conditions: cited from earlier work
[7] = group, exercise with the TriAc treatment

O=C(O)Cc1cc(I)c(Oc2ccc(O)c(I)c2)c(I)c1 [TriAc, [4-(4-hydroxy-3-iodophenoxy)-3,5-diiodophenyl]acetic acid]
glycerol response relative to baseline ([1]; no exercise, subject A, one experiment): 80% | glycerol response relative to baseline ([1]; no exercise, subject B): 13% | glycerol response relative to baseline ([1]; no exercise, subject C): −40% | glycerol response relative to baseline ([1]; with exercise, subject A): 250% | average increase of the concentration of glycerol [1, 7]: 37 µM | average increase of the concentration of glycerol above baseline [1, 7]: 124% | increase of exercise induced breakdown of fat as evidenced by plasma glycerol ([1]; group, versus placebo): over 300% | Net change in glycerol concentration after exercise ([1]; subject A, Trial 1 Treatment): 67.6 µM | Glycerol Concentration ([1]; subject A, Trial 1 Treatment, 120 micrograms TriAc cream topical, After exercise): 93.7 µM | Glycerol Concentration ([1]; subject A, Trial 1 Treatment, 120 micrograms TriAc cream topical, Before exercise (baseline)): 26.2 µM | Percentage change ([1]; subject A, Trial 1 Treatment): 258.9% | Net change in glycerol concentration after exercise ([1]; subject A, Trial 2 Treatment): 66.2 µM | Glycerol Concentration ([1]; subject A, Trial 2 Treatment, After exercise): 97.9 µM | Glycerol Concentration ([1]; subject A, Trial 2 Treatment, Before exercise (baseline)): 31.7 µM | Percentage change ([1]; subject A, Trial 2 Treatment): 208.7% | Net change in glycerol concentration after exercise ([1]; subject A, Trial 3 Treatment): 23.4 µM | Glycerol Concentration ([1]; subject A, Trial 3 Treatment, After exercise): 42.7 µM | Glycerol Concentration ([1]; subject A, Trial 3 Treatment, Before exercise (baseline)): 19.3 µM | Percentage change ([1]; subject A, Trial 3 Treatment): 121.4% | Net change in glycerol concentration after exercise ([1]; subject B, Trial 1 Treatment): 29.0 µM | Glycerol Concentration ([1]; subject B, Trial 1 Treatment, After exercise): 64.8 µM | Glycerol Concentration ([1]; subject B, Trial 1 Treatment, Before exercise (baseline)): 35.8 µM | Percentage change ([1]; subject B, Trial 1 Treatment): 80.8% | Net change in glycerol concentration after exercise ([1]; subject B, Trial 2 Treatment): 30.3 µM | Glycerol Concentration ([1]; subject B, Trial 2 Treatment, After exercise): 60.7 µM | Glycerol Concentration ([1]; subject B, Trial 2 Treatment, Before exercise (baseline)): 30.3 µM | Percentage change ([1]; subject B, Trial 2 Treatment): 100.0% | Net change in glycerol concentration after exercise ([1]; subject B, Trial 3 Treatment): 17.9 µM | Glycerol Concentration ([1]; subject B, Trial 3 Treatment, After exercise): 40.0 µM | Glycerol Concentration ([1]; subject B, Trial 3 Treatment, Before exercise (baseline)): 22.1 µM | Percentage change ([1]; subject B, Trial 3 Treatment): 80.3% | Net change in glycerol concentration after exercise ([1]; subject C, Trial 1 Treatment): 37.2 µM | Glycerol Concentration ([1]; subject C, Trial 1 Treatment, After exercise): 80.0 µM | Glycerol Concentration ([1]; subject C, Trial 1 Treatment, Before exercise (baseline)): 42.7 µM | Percentage change ([1]; subject C, Trial 1 Treatment): 87.1% | Net change in glycerol concentration after exercise ([1]; subject C, Trial 2 Treatment): 38.2 µM | Glycerol Concentration ([1]; subject C, Trial 2 Treatment, After exercise): 90.3 µM | Glycerol Concentration ([1]; subject C, Trial 2 Treatment, Before exercise (baseline)): 52.1 µM | Percentage change ([1]; subject C, Trial 2 Treatment): 73.3% | Net change in glycerol concentration after exercise ([1]; subject C, Trial 3 Treatment): 30.3 µM | Glycerol Concentration ([1]; subject C, Trial 3 Treatment, After exercise): 57.9 µM | Glycerol Concentration ([1]; subject C, Trial 3 Treatment, Before exercise (baseline)): 27.6 µM | Percentage change ([1]; subject C, Trial 3 Treatment): 110.0% | increase of effectiveness of exercise to burn fat ([1]; using percentage change in the concentration of glycerol, versus placebo): about 400% | signs of inflammation [2]: increased signs of inflammation | pain in the small treated area ([3]; 24 hours after Day 3 application): greatly diminished | increase in healing rate ([3]; about 1/20th to 1/40th of a normal daily replacement dose, intermittent): greater than 100% | pigmentation or scar ([3]; after 1.5 years): no pigmentation or scar | pain ([3]; after application over entire area on Day 4): All pain was resolved overnight | erythema and tenderness ([3]; applied Day 3 to a small area, only where applied): decrease in erythema and tenderness | healing rate of a burn ([3]; applied twice, less than 80 μg per 400 cm^2, versus time course in medical literature): approximately doubled the healing rate | effect of the first application ([3]; cream applied to entire area on Day 1, observed over next 48 hours): no visible or other obvious indications that the first application had any effect | signs of inflammation or infection in the wound ([3]; day 5): no signs of inflammation or infection | re-epithelialization of the skin ([3]; day 5, 20 hours after second application to entire area): virtually completely re-epithelialized | time to complete re-epithelialization ([3]; post scald second degree partial thickness burn): five to six 24 hour periods | healing time versus average prior art healing time ([3]; prior art 19 days): fourteen days less than the average prior art healing time of 19 days | change of fat deposits (lateral hip fat deposits; 9 mg TriAc per 100 ml base, 1 to 3 times a week before exercise, for 2 to 3 weeks): Little change | fat deposits (lateral hip fat deposits; after 5 weeks of application): could barely be discerned | amount needed to make a 200 gm rat hyperthyroid (rat): approximately 7 micrograms | transient change of TSH levels (TSH [4]; 350 ug oral, over a few hour time period): 30% | minimum oral dosage which transiently changes TSH levels (TSH [4]; oral, human): 350 µg | effect on TSH levels or other thyroid hormone function tests (TSH [5]): no effect on TSH levels | potency as thyroid hormone agonist [6]: potency about that of T-3 | selectivity in binding [6]: slightly Beta selective
